Consider 17 compounds from patent US8324264B1, “Inhibitors of bacterial biofilms and related methods” (Sequoia Sciences, Inc., priority 2011, dated 2012).

One test has as its system P. aeruginosa biofilms. Description: Biofilm growth assay (spreading biofilm on semi-solid agar), P. aeruginosa. The test is classed as cell-based. The conditions noted are these: biofilm growth assay, overnight 37° C., vs negative controls, Tables 1-5; for IC85: Pseudomonas aeruginosa, read-out: P. aeruginosa: concentration that reduces the area of the spreading biofilm by greater than or equal to 85%. In outline: (§1)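 Values are compound concentrations (μg/ml) that cut the spreading-biofilm zone area by ≥85% relative to negative controls after overnight 37 °C growth from 5 μL central inoculum. E. coli plates: LB, 0.6% agar, 0.5% glucose; P. aeruginosa plates: M8 agar plus 0.2% glucose, 100 μM CaCl2, 1 mM MgSO4, 0.5% Casamino acids.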

The test system of the next test is E. coli biofilms. Description: Biofilm growth assay (spreading biofilm on semi-solid agar), E. coli. The conditions noted are these: biofilm growth assay, overnight 37° C., vs negative controls, Tables 1-5; for IC85: Escherichia coli, read-out: E. coli: concentration that reduces the area of the spreading biofilm by greater than or equal to 85%. In kind it is cell-based. In outline: as §1

≈ marks a conversion by molar mass, not a printed value.

As to `CN1CCN(c2c([C@]34CCC(C)(C)CC3C3=CCC5[C@@]6(C)Cc7c(n[nH]c7N)C(C)(C)C6CC[C@@]5(C)[C@]3(C)CC4)n[nH]c2O)CC1` (stereo partly drawn) [Compound 89, 3-((4aS,6aS,6bR,13aR)-12-Amino-2,2,6a,6b,9,9,13a-heptamethyl-2,3,4,4a,5,6,6a,6b,7,8,8a,9,11,13,13a,13b,14,15b-octadecahydro-1H-chryseno[1,2-f]indazol-4-a-yl)-4-(4-methylpiperazin-1-yl)-1H-pyrazol-5-ol], the “P. aeruginosa: concentration that reduces the area of the spreading biofilm by greater than or equal to 85%” value in the test with P. aeruginosa biofilms came out at 1 µg/mL. The “E. coli: concentration that reduces the area of the spreading biofilm by greater than or equal to 85%” value with E. coli biofilms worked out at 1 µg/mL.

`CC1(C)CC[C@]2(C(=O)O)CC[C@]3(C)C(=CCC4[C@@]5(C)Cc6c[nH]nc6C(C)(C)C5CC[C@]43C)C2C1` (stereo partly shown) [D]: the IC85 with P. aeruginosa biofilms is 1 mg/L (≈ 2.09 µM); in the test with E. coli biofilms, 4 mg/L (≈ 8.36 µM).

For the compound `Cn1cc2c(n1)C(C)(C)C1CC[C@]3(C)C(CC=C4C5CC(C)(C)CC[C@]5(C(=O)O)CC[C@]43C)[C@@]1(C)C2` (stereo partly shown) [E], the IC85 in the test on P. aeruginosa biofilms was 2 mg/L (≈ 4.06 µM); in the test on E. coli biofilms, above 16 mg/L.

Regarding `C[C@H]1[C@H](C)CC[C@]2(C(=O)O)CC[C@]3(C)C(=CCC4[C@@]5(C)Cc6c(n[nH]c6N)C(C)(C)[C@@H]5CC[C@]43C)[C@H]12` (stereo partly drawn) [Example 2, (4aS,6aS,6bR,13aR)-12-Amino-2,2,6a,6b,9,9,13a-heptamethyl-2,3,4,4a,5,6,6a,6b,7,8,8a,9,11,13,13a,13b,14,15b-octadecahydro-1H-chryseno[1,2-f]indazole-4-a-carboxylic acid], the values for the IC85 with P. aeruginosa biofilms and in the test with E. coli biofilms were 0.5 mg/L (≈ 1.01 µM) and 1 mg/L (≈ 2.03 µM), respectively.

`C[C@@H]1c2n[nH]c(N)c2C[C@]2(C)C3CC=C4[C@@H]5CC(C)(C)CC[C@]5(C(=O)O)CC[C@@]4(C)[C@]3(C)CC[C@@H]12` (stereo partly drawn) [Example 3, (4aS,6aS,6bR,8aS,9S,13aS,15bS)-12-Amino-2,2,6a,6b,9,13a-hexamethyl-2,3,4,4a,5,6,6a,6b,7,8,8a,9,11,13,13a,13b,14,15b-octadecahydro-1H-chryseno[1,2-f]indazole-4-a-carboxylic acid]: the IC85 in the test on P. aeruginosa biofilms turned out to be 0.5 mg/L (≈ 1.04 µM); in the test on E. coli biofilms it was 1 mg/L (≈ 2.08 µM).

With `CC1=C2[C@@H]3CC(C)(C)CC[C@]3(C(=O)O)CC[C@@]2(C)[C@]2(C)CC[C@H]3C(C)(C)c4n[nH]c(N)c4C[C@]3(C)C2C1` (stereo partly drawn) [Example 4, (4aS,6aS,6bR,8aR,13aR,15bS)-12-Amino-2,2,6a,6b,9,9,13a,15-octamethyl-2,3,4,4a,5,6,6a,6b,7,8,8a,9,11,13,13a,13b,14,15b-octadecahydro-1H-chryseno[1,2-f]indazole-4-a-carboxylic acid], the IC85 was determined as 0.25 mg/L (≈ 0.492 µM) with P. aeruginosa biofilms and 1 mg/L (≈ 1.97 µM) with E. coli biofilms.

Take `CC1(C)CC[C@]2(C(=O)O)CC[C@]3(C)C(=C(c4ccco4)CC4[C@@]5(C)Cc6c(n[nH]c6N)C(C)(C)[C@@H]5CC[C@]43C)[C@@H]2C1` (stereo partly drawn) [Example 7, (4aS,6aS,6bR,13aR)-12-Amino-15-(furan-2-yl)-2,2,6a,6b,9,9,13a-heptamethyl-2,3,4,4a,5,6,6a,6b,7,8,8a,9,11,13,13a,13b,14,15b-octadecahydro-1H-chryseno[1,2-f]indazole-4-a-carboxylic acid]: the IC85 with P. aeruginosa biofilms is 0.25 mg/L (≈ 0.447 µM); in the test with E. coli biofilms, 1 mg/L (≈ 1.79 µM).

Consider `CN(C)c1ccc(C2=C3[C@@H]4CC(C)(C)CC[C@]4(C(=O)O)CC[C@@]3(C)[C@]3(C)CC[C@H]4C(C)(C)c5n[nH]c(N)c5C[C@]4(C)C3C2)cc1` (stereo partly drawn) [Example 10, (4aS,6aS,6bR,13aR)-12-Amino-15-(4-(dimethylamino)phenyl)-2,2,6a,6b,9,9,13a-heptamethyl-2,3,4,4a,5,6,6a,6b,7,8,8a,9,11,13,13a,13b,14,15b-octadecahydro-1H-chryseno[1,2-f]indazole-4-a-carboxylic acid], for which the IC85 was 0.5 mg/L (≈ 0.816 µM) in the test with P. aeruginosa biofilms and 1 mg/L (≈ 1.63 µM) with E. coli biofilms.

With `CC1(C)CC[C@]2(C(=O)O)CC[C@]3(C)C(=C(c4ccc5c(c4)CCN5)CC4[C@@]5(C)Cc6c(n[nH]c6N)C(C)(C)[C@@H]5CC[C@]43C)[C@@H]2C1` (stereo partly drawn) [Example 11, (4aS,6aS,6bR,13aR)-12-Amino-15-(indolin-5-yl)-2,2,6a,6b,9,9,13a-heptamethyl-2,3,4,4a,5,6,6a,6b,7,8,8a,9,11,13,13a,13b,14,15b-octadecahydro-1H-chryseno[1,2-f]indazole-4-a-carboxylic acid], the IC85 in the test with P. aeruginosa biofilms and with E. coli biofilms was 0.5 mg/L (≈ 0.818 µM) throughout.

As for `CCC1=C2[C@@H]3CC(C)(C)CC[C@]3(C(=O)O)CC[C@@]2(C)[C@]2(C)CC[C@H]3C(C)(C)c4n[nH]c(N)c4C[C@]3(C)C2C1` (stereo partly drawn) [Example 14, (4aS,6aS,6bR,8aR,13aR,15bS)-12-Amino-15-ethyl-2,2,6a,6b,9,9,13a-heptamethyl-2,3,4,4a,5,6,6a,6b,7,8,8a,9,11,13,13a,13b,14,15b-octadecahydro-1H-chryseno[1,2-f]indazole-4-a-carboxylic acid], the IC85 amounted to 0.5 mg/L (≈ 0.958 µM) with P. aeruginosa biofilms and 2 mg/L (≈ 3.83 µM) with E. coli biofilms.

Regarding `CC1(C)CC[C@]2(C(=O)O)CC[C@]3(C)C(=C(c4cccc(N)c4)CC4[C@@]5(C)Cc6c(n[nH]c6N)C(C)(C)[C@@H]5CC[C@]43C)[C@@H]2C1` (stereo partly drawn) [Example 15, (4aS,6aS,6bR,8aR,13aR,15bS)-12-Amino-15-(3-aminophenyl)-2,2,6a,6b,9,9,13a-heptamethyl-2,3,4,4a,5,6,6a,6b,7,8,8a,9,11,13,13a,13b,14,15b-octadecahydro-1H-chryseno[1,2-f]indazole-4-a-carboxylic acid], the “P. aeruginosa: concentration that reduces the area of the spreading biofilm by greater than or equal to 85%” value in the test with P. aeruginosa biofilms turned out to be 0.25 µg/mL. The “E. coli: concentration that reduces the area of the spreading biofilm by greater than or equal to 85%” value in the test with E. coli biofilms was found to be 1 µg/mL.

In the case of `CC1(C)CC[C@]2(C(=O)O)CC[C@]3(C)C(=C(c4cccc(O)c4)CC4[C@@]5(C)Cc6c(n[nH]c6N)C(C)(C)C5CC[C@]43C)C2C1` (stereo partly drawn) [Example 16, (4aS,6aS,6bR,13aR)-12-Amino-15-(3-hydroxyphenyl)-2,2,6a,6b,9,9,13a-heptamethyl-2,3,4,4a,5,6,6a,6b,7,8,8a,9,11,13,13a,13b,14,15b-octadecahydro-1H-chryseno[1,2-f]indazole-4-a-carboxylic acid], the IC85 with P. aeruginosa biofilms is 1 mg/L (≈ 1.71 µM); in the test with E. coli biofilms, 2 mg/L (≈ 3.41 µM).

As to `CC1(C)CC[C@]2(C(=O)O)CC[C@]3(C)C(=C(c4cccc(F)c4)CC4[C@@]5(C)Cc6c(n[nH]c6N)C(C)(C)[C@@H]5CC[C@]43C)[C@@H]2C1` (stereo partly drawn) [Example 17, (4aS,6aS,6bR,8aR,13aR,15bS)-12-Amino-15-(3-fluorophenyl)-2,2,6a,6b,9,9,13a-heptamethyl-2,3,4,4a,5,6,6a,6b,7,8,8a,9,11,13,13a,13b,14,15b-octadecahydro-1H-chryseno[1,2-f]indazole-4-a-carboxylic acid], the “P. aeruginosa: concentration that reduces the area of the spreading biofilm by greater than or equal to 85%” value in the test with P. aeruginosa biofilms amounted to 0.5 µg/mL. For the same compound, the “E. coli: concentration that reduces the area of the spreading biofilm by greater than or equal to 85%” value in the test with E. coli biofilms was above 2 µg/mL.

As for `CC1(C)CC[C@]2(C(=O)O)CC[C@]3(C)C(=C(c4cccc(CN)c4)CC4[C@@]5(C)Cc6c(n[nH]c6N)C(C)(C)C5CC[C@]43C)C2C1` (stereo partly drawn) [Example 18, (4aS,6aS,6bR,13aR)-12-Amino-15-(3-(aminomethyl)phenyl)-2,2,6a,6b,9,9,13a-heptamethyl-2,3,4,4a,5,6,6a,6b,7,8,8a,9,11,13,13a,13b,14,15b-octadecahydro-1H-chryseno[1,2-f]indazole-4-a-carboxylic acid], the “P. aeruginosa: concentration that reduces the area of the spreading biofilm by greater than or equal to 85%” value in the test with P. aeruginosa biofilms amounted to 0.5 µg/mL. The “E. coli: concentration that reduces the area of the spreading biofilm by greater than or equal to 85%” value with E. coli biofilms stood at 1 µg/mL.

Consider `CC1(C)CC[C@]2(C(=O)O)CC[C@]3(C)C(=C(c4cccc(C(N)=O)c4)CC4[C@@]5(C)Cc6c(n[nH]c6N)C(C)(C)C5CC[C@]43C)C2C1` (stereo partly drawn) [Example 19, (4aS,6aS,6bR,13aR)-12-Amino-15-(3-carbamoylphenyl)-2,2,6a,6b,9,9,13a-heptamethyl-2,3,4,4a,5,6,6a,6b,7,8,8a,9,11,13,13a,13b,14,15b-octadecahydro-1H-chryseno[1,2-f]indazole-4-a-carboxylic acid], for which, in the test on P. aeruginosa biofilms, the “P. aeruginosa: concentration that reduces the area of the spreading biofilm by greater than or equal to 85%” value was 1 µg/mL. The “E. coli: concentration that reduces the area of the spreading biofilm by greater than or equal to 85%” value in the test with E. coli biofilms is 1 µg/mL.

For the compound `Cc1ccc(C2=C3C4CC(C)(C)CC[C@]4(C(=O)O)CC[C@@]3(C)[C@]3(C)CCC4C(C)(C)c5n[nH]c(N)c5C[C@]4(C)C3C2)cc1N` (stereo partly drawn) [Example 20, (4aS,6aS,6bR,13aR)-12-Amino-15-(3-amino-4-methylphenyl)-2,2,6a,6b,9,9,13a-heptamethyl-2,3,4,4a,5,6,6a,6b,7,8,8a,9,11,13,13a,13b,14,15b-octadecahydro-1H-chryseno[1,2-f]indazole-4-a-carboxylic acid], the “P. aeruginosa: concentration that reduces the area of the spreading biofilm by greater than or equal to 85%” value in the test on P. aeruginosa biofilms stood at 0.5 µg/mL. Further, the “E. coli: concentration that reduces the area of the spreading biofilm by greater than or equal to 85%” value in the test on E. coli biofilms was 2 µg/mL.

As for `CN(C)c1cccc(C2=C3C4CC(C)(C)CC[C@]4(C(=O)O)CC[C@@]3(C)[C@]3(C)CCC4C(C)(C)c5n[nH]c(N)c5C[C@]4(C)C3C2)c1` (stereo partly drawn) [Example 21, (4aS,6aS,6bR,13aR)-12-Amino-15-(3-(dimethylamino)phenyl)-2,2,6a,6b,9,9,13a-heptamethyl-2,3,4,4a,5,6,6a,6b,7,8,8a,9,11,13,13a,13b,14,15b-octadecahydro-1H-chryseno[1,2-f]indazole-4-a-carboxylic acid], in the test on P. aeruginosa biofilms, the “P. aeruginosa: concentration that reduces the area of the spreading biofilm by greater than or equal to 85%” value came to 0.5 µg/mL. Further, the “E. coli: concentration that reduces the area of the spreading biofilm by greater than or equal to 85%” value with E. coli biofilms was above 2 µg/mL.
